This is an account of results in PMC5040251, “The Structure of Treponema pallidum Tp0751 (Pallilysin) Reveals a Non-canonical Lipocalin Fold That Mediates Adhesion to Extracellular Matrix Components and Interactions with Host Cells” (PLoS Pathogens, 2016).

Ends that are not written are not given here.

One assay deals with collagen type IV. Description: Initial (single point) binding screen of Tp0751 peptide library to immobilized collagen type IV. Particulars: immobilized human collagen type IV; absorbance 600 nm, three wells, two independent experiments; Student's two-tailed t-test against non-binding peptides. As to the method:
(§1) Fig 3 Tp0751 lipocalin derived peptides directly bind host proteins. (A) Thirteen overlapping Tp0751 synthetic 24-mer peptides were evaluated for binding to immobilized fibrinogen, fibronectin, collagen type I, and collagen type IV. Average absorbance readings (600 nm) from three wells are presented with bars indicating standard error and the results are representative of two independent experiments. […] Average absorbance readings (600 nm) from three wells are presented with bars indicating standard error and the results are representative of two independent experiments. […] The strand colored in cyan reflects the overlap of p10 and p11. Color coded sequences of peptides p4, p6, p10, p10scr1, and p10scr2 are shown. Arginine residues in the p10 peptides are indicated by underlining.
(§2) Plasminogen-depleted human fibrinogen (Calbiochem) was purchased from VWR International. Laminin isolated from Engelbreth-Holm-Swarm murine sarcoma basement membrane and fibronectin isolated from human plasma were purchased from Sigma-Aldrich Canada Ltd. (Oakville, ON). Human collagen types I and IV (Rockland Immunochemicals, Inc.) were purchased from VWR International.
(§3) To test for binding of synthetic Tp0751 peptides p1-p13, p1scr, p6scr, p10scr1, and p10scr2 to the host proteins fibrinogen, fibronectin, laminin, collagen type I, and collagen type IV, initial binding assays were performed as described previously. For dose-dependent binding assays, recombinant proteins were serially diluted 1:2 from either 10 μM to 0.156 μm (Tp0751_78A used for crystallization and Tp0751_78 WT) or 40 μm to 0.625 μm (peptides p4, p6, p10, p11, p10scr1, and p10scr2). Average absorbance readings (600 nm) from three wells are presented with bars indicating standard error and the results are representative of two independent experiments. Plates were read at 600 nm with a BioTek enzyme-linked immunosorbent assay plate reader (Fisher Scientific, Ottawa, ON). All statistical analyses were performed using the Student’s two-tailed t-test. Non-linear regression curves were fitted and apparent dissociation constants (K d) were calculated using GraphPad Prism data analysis software (San Diego, CA).

The target in assay [1] is fibronectin. Description: Dose-dependent binding assay to immobilized fibronectin. Particulars: plate binding to immobilized human plasma fibronectin; peptides serially diluted 1:2 from 40 to 0.625; absorbance 600 nm, three wells, representative of two independent experiments; non-linear regression, GraphPad Prism; read-out: Apparent Kd (Fn). As to the method: as §1, §2, §3

Assay [2] deals with fibronectin. Description: Initial (single point) binding screen of Tp0751 peptide library to immobilized fibronectin. The note with it: absorbance 600 nm, three wells, two independent experiments, Student's two-tailed t-test against non-binding peptides. Also on record: species or system human. The protocol: as §1, §2, §3
A further assay relates to collagen type I. Description: Initial (single point) binding screen of Tp0751 peptide library to immobilized collagen type I. Particulars: immobilized human collagen type I; absorbance 600 nm, three wells, two independent experiments; Student's two-tailed t-test against non-binding peptides. As to the method: as §1, §2, §3
Another assay has as its system HUVEC monolayers. Description: Peptide competitive inhibition assay: stationary adhesion of Tp0751-expressing B. burgdorferi (Bb-Tp0751) to HUVEC monolayers. The format is cell-based, human. The note with it: for Effect on adhesion of Bb-Tp0751 to HUVEC monolayers: HUVECs on matrigel pre-incubated with 0.1 μg peptide per well for 3 h at 37°C, peptide removed, bacteria 12 h at 36°C, GFP bacteria counted in ten FOV, 400x, compared with scrambled peptide. As to the method: Fig 5 Tp0751 peptide 10 inhibits adhesion of Tp0751-expressing B. burgdorferi to HUVEC monolayers. (A) Schematic showing the experimental design of the competitive inhibition assay. Confluent HUVEC monolayers seeded on artificial basement membrane were preincubated with synthetic Tp0751 peptides (p4, p6, p10, p11, p4scr, p6scr, and p10scr1) to allow for peptide-endothelial cell interactions. HUVECs were then co-incubated with parent (negative control) or Tp0751-expressing B. burgdorferi strains to assess the competitive inhibition capacity of the synthetic Tp0751 peptides. After washing to remove non-adherent bacteria, B. burgdorferi adhesion to HUVECs was quantified using fluorescence microscopy to count the number of adherent bacteria per field of view (FOV) at 400x magnification. (B) Bar graph illustrating the number of adherent B. burgdorferi per FOV. Mean counts ± SEM from ten FOV for each biological replicate are presented with standard error bars. For statistical analyses, attachment by strain Bb-Tp0751 to HUVEC monolayers preincubated with peptides p4, p6, and p10 was compared to the attachment of strain Bb-Tp0751 in the presence of corresponding scrambled peptides, using the Student’s two-tailed t-test. […] The parent and Bb-Tp0751 strains are indicated by clear white bars and striped colored bars, respectively. […] Mean counts ± SEM from ten FOV for each biological replicate are presented with standard error bars. Statistical analysis, was performed using the Student’s two-tailed t-test.
Human umbilical vein endothelial cells (HUVECs) pooled from multiple donors and purchased from Lonza (Allendale, NJ) were cultured in endothelial growth medium-2 (EGM-2) (Lonza) at 37°C in an atmosphere of 5% CO2, as per manufacturer’s instructions. B. burgdorferi strains were cultivated at 36°C in an atmosphere of 1.5% CO2 in BSK-II medium prepared in-house with appropriate antibiotics (100 μg/mL gentamycin, 200 μg/mL kanamycin).
Stationary adhesion assays were adapted from Szczepanski and colleagues and Cameron and colleagues. HUVECs (passage 2–3) were seeded in 4-well chamber slides (Nalge Nunc International, Rochester, NY), coated with 500 μg/mL phenol red-free matrigel (Corning, Tewksbury, MA) and grown 20 h at 37°C in 5% CO2 to form confluent monolayers. Synthetic Tp0751 peptides (p4, p6, p10, p11, […], p4scr, p6scr, and p10scr1) were diluted to 500 μg/ml in HEPES buffered saline solution (Lonza) and HUVECs were pre-incubated with 0.1 μg of Tp0751 peptide per well for 3 h at 37°C in 5% CO2. Peptide solutions were removed from HUVECs prior to the addition of bacteria. Borrelia burgdorferi strains were cultured in biological triplicate, and two days prior to the experiment, B. burgdorferi cultures were passaged to 6x10^5 cells/ml and grown for 48 h to reach a concentration of 2x10^7 cells/ml. Borrelia burgdorferi cultures were then centrifuged and resuspended in a 3:1 mixture of BSK-II:EGM-2 and 1.4x10^7 cells of each biological replicate were added to HUVECs in duplicate wells. […] Quantitation of B. burgdorferi adhesion to HUVECs was performed by counting GFP-expressing bacteria in ten fields of view (FOV) from duplicate wells for each biological replicate under 400X magnification on a Nikon 80i fluorescence microscope (Meridian Instrument Company, Inc., Kent, WA) fitted with a monochrome digital camera, a dark-field condenser, and fluorescein filter (Excelitas Technologies, Mississauga, ON). […]

For the sequence HHHHHHGGAAQTHTQPPVQTAMRIALWNRA [p4], the “Binding to collagen IV in initial binding screen” value (from here on “Binding to collagen IV”) in the assay on collagen type IV is reported as “statistically significant binding”. Also, the Kd on fibronectin [1] was 2.4 ± 0.1 µM. The “Binding to fibronectin in initial binding screen” value (“Binding to fibronectin” below) in the assay with fibronectin [2] is given as “statistically significant binding”. Moreover, in the assay with collagen type I, the “Binding to collagen I in initial binding screen” value was “statistically significant binding”. Moreover, the “Effect on adhesion of Bb-Tp0751 to HUVEC monolayers” value (shortened to “Effect on adhesion of Bb-Tp0751”) in the assay with HUVEC monolayers was “did not alter adhesion”.

As to HHHHHHQGALQHLLAGLWIQTEISPNSGDI [p6], in the assay with collagen type IV, the “Binding to collagen IV” value was “statistically significant binding”. Also, the Kd at fibronectin [1] was determined as 4.5 ± 0.9 µM. Also, in the assay with fibronectin [2], the “Binding to fibronectin” value was “statistically significant binding”. In addition, the “Binding to collagen I in initial binding screen” value in the assay on collagen type I is “statistically significant binding”. The “Effect on adhesion of Bb-Tp0751” value with HUVEC monolayers is recorded as “did not alter adhesion”.

For HHHHHHRKTVSFLTRNTAISSIRRRLEVTF [p10], the “Binding to collagen IV” value in the assay on collagen type IV is recorded as “significant binding”. On fibronectin [1], the Kd turned out to be 1.6 ± 0.2 µM. The “Binding to fibronectin” value in the assay with fibronectin [2] is given as “significant binding”. Further, in the assay with collagen type I, the “Binding to collagen I in initial binding screen” value is given as “not to collagen I”. Further, the “Effect on adhesion of Bb-Tp0751” value in the assay on HUVEC monolayers is listed as “significantly reduced binding”. Further, the “Peptide concentration giving statistically significant lower binding of Bb-Tp0751 to HUVEC monolayers compared with p8” value in the assay on HUVEC monolayers (preincubation with 0-545 nM peptide, Student's two-tailed t-test, p≤0.005) is listed as at least 5.45 nM.

As for HHHHHHSIRRRLEVTFESHEVIHVRAVEDV [p11], the “Binding to collagen IV” value in the assay with collagen type IV was “statistically significant binding”. In addition, the Kd at fibronectin [1] was found to be 5.8 ± 0.3 µM. Besides, the “Binding to fibronectin” value with fibronectin [2] is reported as “statistically significant binding”. The “Binding to collagen I in initial binding screen” value in the assay with collagen type I is on record as “statistically significant binding”. For the same sequence, in the assay on HUVEC monolayers, the “Effect on adhesion of Bb-Tp0751” value was “did not alter adhesion”.
